# Measured values reported in ChEMBL document CHEMBL3244189, “Synthesis and antitumor properties of 7-deoxy-7-[(cis- and trans-3-aminocyclohexane)thio]carminomycinone” (1979).
# Calls of active or inactive are those of the source. The calls are words filed in the database; no cut-off is given here.
# How the values were obtained:
# Assay type in all cases: functional
# Bacillus spizizenii [1] = test: Antibacterial activity against Bacillus subtilis ATCC 6633 at 50 ug/ml by plate assay; settings: read-out: IZ
# [2] = test system: Enterobacteria phage lambda; test: Induction of lambda phage production in Escherichia coli W1709 (lambda) assessed as plaque formation up to 50 ug/ml preincubated for 30 mins followed by heart infusion broth and glucose addition measured after 120 mins
# L1210 [3] = test: Antitumor activity against mouse L1210 cells allografted in mouse assessed as tumor growth inhibition at 0.64 mg/kg, ip relative to control; settings: route intraperitoneal
# [4] = test system: Enterobacteria phage lambda; test: Induction of lambda phage production in Escherichia coli W1709 (lambda) assessed as plaque formation at 3.1 ug/ml preincubated for 30 mins followed by heart infusion broth and glucose addition measured after 120 mins relative to control
# Bacillus spizizenii [5] = test: Antibacterial activity against Bacillus subtilis ATCC 6633 at 3.1 ug/ml by plate assay; settings: read-out: IZ
# L1210 [6] = test: Antitumor activity against mouse L1210 cells allografted in mouse assessed as tumor growth inhibition at 0.25 to 32 mg/kg, ip relative to control; settings: dose mg/kg 0.25-32; route intraperitoneal
Compound,zone of inhibition at 50 µg/mL (Bacillus spizizenii [1]) [mm],Activity [2],T/C (L1210 [3]),T/C [4],zone of inhibition at 3.1 µg/mL (Bacillus spizizenii [5]) [mm],T/C (L1210 [6])
CC(=O)[C@]1(O)Cc2c(O)c3c(c(O)c2[C@@H](S[C@@H]2CCC[C@@H](N)C2)C1)C(=O)c1c(O)cccc1C3=O,10.5,inactive,,,,
CC(=O)[C@]1(O)Cc2c(O)c3c(c(O)c2[C@@H](O[C@H]2C[C@H](N)[C@H](O)[C@H](C)O2)C1)C(=O)c1c(O)cccc1C3=O [CARUBICIN],,,157,6.2,19,
CC(=O)[C@]1(O)Cc2c(O)c3c(c(O)c2[C@@H](S[C@H]2CCC[C@@H](N)C2)C1)C(=O)c1c(O)cccc1C3=O,10.3,inactive,,,,<125
